Where two headings read alike, the source gives them in different places.
Key:
waste (minute volume) = assay: Waste / minute volume by echo-Doppler in cardiovascular patients (peripheral hyperemia); type: in vivo; conditions: 30 mg/day intramuscular
Source text: (§1) The technology used to show the hemodynamic changes was of the non-invasivetype, as in this way experiments can be repeated and are completely innoxious for the patient. Of all the non-invasive methods of diagnosis we selected the most reliable of actual conditions, which is the method of ultrasounds (echo and Doppler's effects). The bidimensional echocardiography in real time, combined with pulsatile Doppler and the bidimensional vascular echography combined with pulsatile Doppler hemodynamic, are actually the two most reliable non-invasive techniques for the study of the anatomic changes and macroscopic hemodynamics with regard to the cardiovascular apparatus. That's why we used for the study of the clinical effects of the 2,4,6-triiodophenol an echo-Doppler trade mark ATL (Mark V), being the transmission frequency of 3 MHz, as well as a continuous Doppler trade mark SONICAID of 4 and 8 MHz.
(§2) Patients were divided in four statistically acceptable groups (50 in each group), comparing the results obtained with this medicament before, during and after the treatment.
(§3) Methodologically there are practiced echographical cuts in real time of the heart, big vases, supra-aortic trunks, abdominal aorta, portal and caval systems and iliac and femoral arteries, obtaining fluxmetric samples Doppler in all the mentioned cardiac cavities and blood vessels to study the sense of the flow, outflow (stream) or volume of flow and the hemodynamic features of the sanguineous flow.
(§4) Hereunder we expose the clinical results obtained after the administration during three months of the 2,4,6-triiodophenol in 200 cardiovascular patients.
(§5) Sick persons were divided in 4 groups; (1) 50 patients with cerebral vascular insufficiency, (2) 50 patients with coronary insufficiency, (3) 50 patients with hepatic insufficiency and (4) 50 patients with peripheral vascular insufficiency of the lower extremities. All these persons received an intramuscular administration, a dosage of 30 mg/day of 2,4,6-triiodophenol, carrying out controls at the first, second and third month of all angiohemodynamic parameters, supposing a total of 600 controls (150 per each group after the three months).

vascular surface = assay: Vascular caliber by echo-Doppler in cardiovascular patients (vasodilatory action); type: in vivo; conditions: 30 mg/day intramuscular
Source text: as §1, §2, §3, §4, §5

[1] = Effects by parenteral administration compared with classical antirheumatics; type: in vivo; conditions: 1 mg/kg
[2] = system: acetic acid induced pullings; assay: Writhing syndrome test (acetic acid); type: in vivo, mice; conditions: 10 mg/kg oral; for inhibition at 10 mg/kg: Mus musculus, po, read-out: % INHIB. (pullings)
Protocol: Irritant substance: acetic acid at 0.5% injected via intraperitoneal.
Foundation of the method consists in provoking a dolorous syndrome by pulling and torsion of the stomach and the hind legs of the animals.
These pullings or stretchings are calculated during a certain time, using it as the measure of the provoked ache.
Mice of about 22 g by weight were used, animals were left under abstinence during 24 hours before carrying out the test.
Mice were previously selected as to each individual response to the dolorous stimulus provoked by an intraperitoneal injection of 0.2 ml of an acetic acid aqueous solution at the 0.5%. Valid animals for realizing the test are those which respond within a margin of 15-35 pullings in about 5 to 15 minutes after the injection. The remaining animals are not useful.
Medication is realized via oral with the help of an esophageal cannula.
White lot: Administration of 0.1 ml of CMC 1% for each 10 g of corporal weight.
2,4,6-triiodophenol lot: Administration of 10 mg/kg of the product, suspended in CMC of 1%.
Aspirin-Lysin lot (Solusprin): Administration of 500 mg/kg aspirin, dissolved at 1%.
After medication, one has to wait 20 minutes for injecting 0.2 ml acetic acid of 0.5% via intraperitoneal, calculating the number of pullings during 5 minutes. […]
The test was carried out in 9 mice in each lot.

vascular wall = assay: Vascular wall distensibility by echo-Doppler in cardiovascular patients (antiatherosclerotic action); type: in vivo; conditions: 30 mg/day intramuscular
Source text: as §1, §2, §3, §4, §5

[3] = system: arthrosis and atherosclerosis patients; assay: Summary of 175 clinic cases treated; type: in vivo
Source text: Summary of 175 clinic cases treated with 2,4,6-triiodophenol.

fat in the blood = assay: Fat in the blood in cardiovascular patients (hypocholesterinemic action); type: in vivo; conditions: 3rd month, 30 mg/day intramuscular
Protocol: as §4, §5

[4] = cerebral atherosclerosis, 37 patients
[5] = cervical arthrosis, 34 patients
[6] = obliterant atherosclerosis, 14 patients
[7] = vertebral arthrosis, 56 patients

Oc1c(I)cc(I)cc1I [2,4,6-triiodophenol]
Cardiac waste, variation (Δ %) (waste (minute volume); 1st month): +5%
Cerebral minute volume, variation (Δ %) (waste (minute volume); 1st month): +23%
Hepatic minute volume (venous), variation (Δ %) (waste (minute volume); 1st month): +24%
Lower extremity minute volume, variation (Δ %) (waste (minute volume); 1st month): +10%
Cardiac waste, variation (Δ %) (waste (minute volume); 2nd month): +6%
Cerebral minute volume, variation (Δ %) (waste (minute volume); 2nd month): +27,6%
Hepatic minute volume (venous), variation (Δ %) (waste (minute volume); 2nd month): +16%
Lower extremity minute volume, variation (Δ %) (waste (minute volume); 2nd month): +24%
Cardiac waste, variation (Δ %) (waste (minute volume); 3rd month): +11%
Cerebral minute volume, variation (Δ %) (waste (minute volume); 3rd month): +34%
Hepatic minute volume (venous), variation (Δ %) (waste (minute volume); 3rd month): +23%
Lower extremity minute volume, variation (Δ %) (waste (minute volume); 3rd month): +30%
Increase of volume of flow, cerebral (waste (minute volume); conclusions, three months): 34%
Increase of volume of flow, hepatic (waste (minute volume); conclusions, three months): 23%
Increase of volume of flow, lower member (waste (minute volume); conclusions, three months): 30%
Increase of volume of flow, systemic circulatory minute (waste (minute volume); conclusions, three months): 11%
Vascular caliber, abdominal aorta, variation (Δ %) (vascular surface; 1st month): +6%
Vascular caliber, caval iliac artery, variation (Δ %) (vascular surface; 1st month): +8%
Vascular caliber, portal carotid aorta, variation (Δ %) (vascular surface; 1st month): +11%
Vascular caliber, portal system, variation (Δ %) (vascular surface; 1st month): -13%
Vascular caliber, postcaval system, variation (Δ %) (vascular surface; 1st month): -9%
Vascular caliber, thoracic aorta, variation (Δ %) (vascular surface; 1st month): +3%
Vascular caliber, abdominal aorta, variation (Δ %) (vascular surface; 2nd month): +11%
Vascular caliber, caval iliac artery, variation (Δ %) (vascular surface; 2nd month): +12%
Vascular caliber, portal carotid aorta, variation (Δ %) (vascular surface; 2nd month): +12%
Vascular caliber, portal system, variation (Δ %) (vascular surface; 2nd month): -23%
Vascular caliber, postcaval system, variation (Δ %) (vascular surface; 2nd month): -14%
Vascular caliber, thoracic aorta, variation (Δ %) (vascular surface; 2nd month): +7%
Vascular caliber, abdominal aorta, variation (Δ %) (vascular surface; 3rd month): +13%
Vascular caliber, caval iliac artery, variation (Δ %) (vascular surface; 3rd month): +15%
Vascular caliber, portal carotid aorta, variation (Δ %) (vascular surface; 3rd month): +13%
Vascular caliber, portal system, variation (Δ %) (vascular surface; 3rd month): -26%
Vascular caliber, postcaval system, variation (Δ %) (vascular surface; 3rd month): -13%
Vascular caliber, thoracic aorta, variation (Δ %) (vascular surface; 3rd month): +9%
Effects compared with aspirin and indomethacin at therapeutic dosages [1]: comparable and even higher
Total No. pullings ([2]; 20'): 14
Total No. pullings ([2]; 30'): 9
Total No. pullings ([2]; 100'): 9
inhibition at 10 mg/kg ([2]; 20'): 88.4%
inhibition at 10 mg/kg ([2]; 30'): 83.9%
inhibition at 10 mg/kg ([2]; 100'): 86.1%
Distensibility, abdominal aorta, variation (Δ %) (vascular wall; 2nd month): +29%
Distensibility, caval iliac artery, variation (Δ %) (vascular wall; 2nd month): +28%
Distensibility, portal carotid aorta, variation (Δ %) (vascular wall; 2nd month): +27%
Distensibility, portal vein, variation (Δ %) (vascular wall; 2nd month): +29,5%
Distensibility, post caval system, variation (Δ %) (vascular wall; 2nd month): +12%
Distensibility, thoracic aorta, variation (Δ %) (vascular wall; 2nd month): +11%
Distensibility, abdominal aorta, variation (Δ %) (vascular wall; 3rd month): +31%
Distensibility, average value (arteries), variation (Δ %) (vascular wall; 3rd month): +26%
Distensibility, average value (veins), variation (Δ %) (vascular wall; 3rd month): +24%
Distensibility, caval iliac artery, variation (Δ %) (vascular wall; 3rd month): +29,5%
Distensibility, portal carotid aorta, variation (Δ %) (vascular wall; 3rd month): +30%
Distensibility, portal vein, variation (Δ %) (vascular wall; 3rd month): +32%
Distensibility, post caval system, variation (Δ %) (vascular wall; 3rd month): +15%
Distensibility, thoracic aorta, variation (Δ %) (vascular wall; 3rd month): +14%
Improvement of the parietal dynamic of all arteries (vascular wall; conclusions, three months): 26%
Improvement of the parietal dynamic of veins (vascular wall; conclusions, three months): 24%
Distensibility, abdominal aorta, variation (Δ %) (vascular wall; first month): +18%
Distensibility, caval iliac artery, variation (Δ %) (vascular wall; first month): +12%
Distensibility, portal carotid aorta, variation (Δ %) (vascular wall; first month): +17%
Distensibility, portal vein, variation (Δ %) (vascular wall; first month): +15%
Distensibility, post caval system, variation (Δ %) (vascular wall; first month): +7%
Distensibility, thoracic aorta, variation (Δ %) (vascular wall; first month): +7%
% obtained results, B. (good) [3, 4]: 6,25%
% obtained results, E. (excellent) [3, 4]: 81,25%
% obtained results, N. (null) [3, 4]: 3,15%
% obtained results, R. (regular) [3, 4]: 9,35%
% obtained results, B. (good) [3, 5]: 3,22%
% obtained results, E. (excellent) [3, 5]: 90,34%
% obtained results, N. (null) [3, 5]: 3,22%
% obtained results, R. (regular) [3, 5]: 3,22%
% obtained results, B. (good) ([3]; hip arthrosis, 13 patients): 23,10%
% obtained results, B. (good) ([3]; knee arthrosis, 16 patients): 12,5%
% obtained results, E. (excellent) ([3]; knee arthrosis, 16 patients): 81,25%
% obtained results, R. (regular) ([3]; knee arthrosis, 16 patients): 6,25%
% obtained results, B. (good) ([3]; lumbar arthrosis, 4 patients): 25%
% obtained results, E. (excellent) ([3]; lumbar arthrosis, 4 patients): 50%
% obtained results, R. (regular) ([3]; lumbar arthrosis, 4 patients): 25%
% obtained results, E. (excellent) ([3]; obliterant arthrosis, 1 patient): 100%
% obtained results, B. (good) [3, 6]: 7,15%
% obtained results, E. (excellent) [3, 6]: 92,85%
(B) Good result, % of patients ([3]; total 175 patients): 7,43%
(B) Good result, number of patients ([3]; total 175 patients): 13
(E) Excellent result, % of patients ([3]; total 175 patients): 82,86%
(E) Excellent result, number of patients ([3]; total 175 patients): 145
(N) Null result, % of patients ([3]; total 175 patients): 1,71%
(N) Null result, number of patients ([3]; total 175 patients): 3
(R) Regular result, % of patients ([3]; total 175 patients): 8,00%
(R) Regular result, number of patients ([3]; total 175 patients): 14
% obtained results, B. (good) [3, 7]: 10,42%
% obtained results, E. (excellent) [3, 7]: 83,33%
% obtained results, R. (regular) [3, 7]: 6,25%
Cholesterol, variation (fat in the blood): -15%
Triglycerides, variation (fat in the blood): -12%

From US4727090A, “Process for preparing and therapeutical applications of the 2,4,6-triiodophenol” (Bislak, S.A., priority 1983, dated 1988)
